Results on 24 compounds are retold here after patent US20250186408A1, “TREATMENT OF PHARMACORESISTANT EPILEPSY” (Katholieke Universiteit Leuven, priority 2021, published 2025).

Series [1] deals with EKP-induced seizure behaviour in zebrafish larvae. In words: Zebrafish ethyl ketopentanoate (EKP) seizure model, behavioural analysis. The format is in vivo, zebrafish (Danio rerio). The conditions noted are these: for activity against EKP-induced drug-resistant seizures (behavioural) / reduction in EKP-induced drug-resistant seizures (non-significant): maximum tolerated concentration, 7-day-old larvae (FIG. 3); for activity against EKP-induced drug-resistant seizures (behavioural) / reduction in EKP-induced drug-resistant seizures (non-significant) / reduction in EKP-induced seizure behaviour (non-significant): 2 h incubation; for active in the behavioural assay / tolerated in the behavioural assay: 5 dpf larvae, 2 h; for antiseizure activity at the behavioural level (in words): FIG. 5 and FIG. 3; for reduction in EKP-induced seizure behaviour (non-significant): 5-day-old larvae. On the procedure: Experiments were performed as described in (16). In brief, a single 5 or 7 dpf larva was placed in each well of a 96-well plate and treated with either VHC (embryo medium with 1% DMSO) or test compound (dissolved in embryo medium, final solvent concentration of 1% DMSO) in a 100 μL volume. Larvae were incubated in the dark for 2 h at 28° C., whereafter 100 μL of either VHC (embryo medium with 1% DMSO) or 600 μM EKP (dissolved in embryo medium, final solvent concentration of 1% DMSO, 300 μM working concentration) was added to each well. Next, within 5 min the 96-well plate was placed in an automated tracking device (ZebraBox Viewpoint, France) and larval behaviour was video recorded for 30 min. The complete procedure was performed in dark conditions using infrared light. Total locomotor activity was recorded by ZebraLab software (Viewpoint, France) and expressed in actinteg units, which is the sum of pixel changes detected during the defined time interval (5 min). Larval behaviour was depicted as mean actinteg units per 5 min during the 30 min recording period and over consecutive time intervals. Data are pooled from independent experiments and expressed as mean±SD.
In our search for novel antiseizure compounds with the potential to treat drug-resistant seizures, the zebrafish EKP seizure model was used for hit identification and as critical gate-keeper for further investigation in the pharmacoresistant mouse 6-Hz (44 mA) psychomotor seizure model. An automated behavioural analysis was done of 7-day-old zebrafish larvae using video tracking (ViewPoint, France).
The compounds were tested in 5-day-old zebrafish larvae at 2 and/or 10 μM, depending on their tolerability, after 2 h incubation time. […] Among the antiseizure hits were compounds from 10 out of 11 classes tested, namely, propynones, propynals, propynols, propenones, amides, quinolinones, naphthyridinones, thiopyranoxides, pyrazolopyridines and indazoles.

For series [2], the system named is EKP-induced epileptiform discharges in zebrafish larvae. Briefly: Zebrafish EKP seizure model, electrophysiology (non-invasive LFP recordings, PSD analysis). The format is in vivo, zebrafish (Danio rerio). The conditions noted are these: 7 dpf larvae; for efficacy against EKP-induced epileptiform discharges 2 μM / efficacy against EKP-induced epileptiform discharges 10 μM: 22 h incubation, mean, normalized PSD 20-90 Hz; for effect on EKP-induced elevated PSD (in words): 22 h.
Experimental: Non-invasive LFP recordings were measured from the midbrain (optic tectum) of 7 dpf zebrafish larvae pre-incubated with VHC only, EKP only, or compound and EKP. […] These steps occurred at 28° C., while further manipulation and electrophysiological recordings occurred at room temperature (±21° C.) and were performed as described before (16, 27). Each recording lasted 600 seconds.
A power spectral density (PSD) analysis of the recordings was performed using MatLab R2019 software (MATrix LABoratory, USA) as described in (26). The PSD estimate of each LFP recording was summed over each 10 Hz frequency band, ranging from 0 to 160 Hz. Next, the PSD estimates were normalized against the VHC control. Data are expressed as mean±SEM PSD per larva and per condition over the 20-90 Hz region. Outliers were identified via the ROUT test (Q=1%).
PSD analysis assumes that the epileptiform activity manifests as a high-power oscillation at certain frequencies (26). Thus, if epileptic activity occurs often during the recording an elevated PSD estimate should be found at the corresponding frequency band(s) (26).

The subject of series [3] is male NMRI mice. Briefly: Mouse 6-Hz (44 mA) psychomotor seizure model. The format is in vivo. Conditions: for mean seizure duration / dose-response relationship (in words): 30 min before stimulation; for dose-response relationship (in words): i.p.
Experimental: The antiseizure activity of compounds was investigated in the mouse 6-Hz (44 mA) psychomotor seizure model as described before (27). […] Seizure behaviour was video recorded and seizure durations were determined by blinded video analysis by experienced researchers, familiar with the different seizure characteristics. Data are expressed as mean±SD.
The 6-Hz 44 mA model is an acute model of pharmacoresistant focal impaired awareness seizures, previously referred to as complex partial or psychomotor seizures that are induced by a low frequency, long duration corneal electrical stimulation (6 Hz, 0.2 ms rectangular pulse width, 3 s duration, 44 mA). Seizures are typically characterized by a clonic phase and stereotypical automatic behaviours like stun, forelimb clonus, Straub tail and vibrissae twitching.

Each structure is given as a SMILES string. “Also recorded” adds a separate entry of the source.

As to `Cc1ccc(C#CC(=O)c2ccc([N+](=O)[O-])cc2)cc1` [I.2, 1-(4-nitrophenyl)-3-(p-tolyl)prop-2-yn-1-one], the “activity against EKP-induced drug-resistant seizures (behavioural)” value (“activity … (behavioural)” below) in series [1] is “active”.

With `Nc1ncccc1C(=O)C#Cc1ccc(Cl)c(Cl)c1` [Compound 1.13, 1-(2-aminopyridin-3-yl)-3-(3,4-dichlorophenyl)prop-2-yn-1-one], in series [1], the “active in the behavioural assay” value is given as “active” and the “tolerated in the behavioural assay” value is “tolerated”.

For `CNc1ccccc1C(=O)C#Cc1ccc(C(C)(C)C)cc1` [I.14, 3-(4-(tert-butyl)phenyl)-1-(2-(methylamino)phenyl)prop-2-yn-1-one], the “activity … (behavioural)” value in series [1] is reported as “active”.

On to `Cc1ccncc1C(=O)C#Cc1ccc(C(C)(C)C)cc1` [I.11, 3-(4-(tert-butyl)phenyl)-1-(4-methylpyridin-3-yl)prop-2-yn-1-one], for which the “activity … (behavioural)” value in series [1] is “active”.

In the case of `COc1ccc(C(=O)C#Cc2ccc(C)cc2)cc1` [I.1, 1-(4-methoxyphenyl)-3-(p-tolyl)prop-2-yn-1-one], the “activity … (behavioural)” value in series [1] is “active”.

For `CCCCCCC#CC(=O)c1ccccc1N` [I.6, 1-(2-aminophenyl)non-2-yn-1-one], in series [1], the “reduction in EKP-induced drug-resistant seizures (non-significant)” value is “approximately 20%”.

`CCCCCCC#CC(=O)c1ccsc1` [I.9, 1-(thiophen-3-yl)non-2-yn-1-one]: in series [1], the “activity … (behavioural)” value is on record as “active”.

Take `CC(C)(C)c1ccc(C#CC(=O)c2ccc(N)cc2)cc1` [I.4, 1-(4-aminophenyl)-3-(4-(tert-butyl)phenyl)prop-2-yn-1-one]: the “activity … (behavioural)” value in series [1] was “active”.

For the compound `O=C(C#Cc1cccc(Cl)c1)c1cccnc1N1CCOCC1` [Compound 1.21, 3-(3-chlorophenyl)-1-(2-morpholinopyridin-3-yl)prop-2-yn-1-one], in series [1], the “active in the behavioural assay” value was “active” and the “tolerated in the behavioural assay” value was “tolerated”.

Take `Nc1ncccc1C(=O)N1CCN(c2cccc(Cl)c2)CC1` [Compound 6.1, (2-aminopyridin-3-yl)(4-(3-chlorophenyl)piperazin-1-yl)methanone]: the “efficacy against EKP-induced epileptiform discharges 2 μM” value in series [2] (2 μM) is reported as 61%. For the same compound, the “efficacy against EKP-induced epileptiform discharges 10 μM” value in series [2] (10 μM) is listed as 10%. Moreover, the mean seizure duration is recorded as 15.5 s in series [3] (30 mg/kg i.p.), 4.3 s in series [3] (100 mg/kg i.p.), 0.5 s in series [3] (300 mg/kg i.p.) and 0.5 s in series [3] (600 mg/kg i.p.). For the same compound, the “dose-response relationship (in words)” value in series [3] is reported as “displayed a dose-response relationship”.

Take `CCCCCCC#CC(=O)c1ccc(C(=O)OCC)cc1` [I.7, ethyl 4-(non-2-ynoyl)benzoate]: the “reduction in EKP-induced drug-resistant seizures (non-significant)” value in series [1] was “approximately 20%”.

Consider `CC(C)(C)c1ccc(C#CC(=O)c2cccnc2N)cc1` [Compound 1.22, 1-(2-aminopyridin-3-yl)-3-(4-(tert-butyl)phenyl)prop-2-yn-1-one], for which the “efficacy against EKP-induced epileptiform discharges 2 μM” value in series [2] (2 μM) is listed as 45%. For the same compound, in series [1], the “activity … (behavioural)” value is reported as “active; also recorded: most effective”.

On to `CCCCCCC#CC(=O)c1cccnc1N` [Compound 1.23, 1-(2-aminopyridin-3-yl)non-2-yn-1-one], for which the “efficacy against EKP-induced epileptiform discharges 2 μM” value in series [2] (2 μM) amounted to 31%. Further, the “efficacy against EKP-induced epileptiform discharges 10 μM” value in series [2] (10 μM) is reported as −25%. Also, the “reduction in EKP-induced drug-resistant seizures (non-significant)” value in series [1] is “approximately 20%”.

Consider `CC(C)(C)c1ccc(-c2cc(=O)c3ccccc3[nH]2)cc1` [Compound 7.1, 2-(4-(tert-butyl)phenyl)quinolin-4(1H)-one], for which, in series [2] (2 μM), the “effect on EKP-induced elevated PSD (in words)” value is on record as “significantly elevated the PSD” and the “efficacy against EKP-induced epileptiform discharges 2 μM” value is listed as −118%. In series [2] (10 μM), the “effect on EKP-induced elevated PSD (in words)” value was “significantly elevated the PSD” and the “efficacy against EKP-induced epileptiform discharges 10 μM” value was −217%. Further, in series [1], the “antiseizure activity at the behavioural level (in words)” value is reported as “significant antiseizure activity” and the “activity … (behavioural)” value is “active”.

Consider `O=C(C#CC1CC1)c1ccsc1` [I.10, 3-cyclopropyl-1-(thiophen-3-yl)prop-2-yn-1-one], for which, in series [1], the “activity … (behavioural)” value was “active”.

As for `O=C(C#Cc1ccc(Cl)cc1)c1ccccc1` [Compound 1.31, 3-(4-chlorophenyl)-1-phenylprop-2-yn-1-one], in series [1], the “active in the behavioural assay” value is “active” and the “tolerated in the behavioural assay” value is “tolerated”.

Take `O=C(C#Cc1cccc(Cl)c1)c1cccnc1Cl` [Compound 1.20, 3-(3-chlorophenyl)-1-(2-chloropyridin-3-yl)prop-2-yn-1-one]: in series [1], the “active in the behavioural assay” value is reported as “active” and the “tolerated in the behavioural assay” value is listed as “tolerated”.

As for `CC(C)(C)c1ccc(C#CCc2ccccc2)cc1` [Compound 4.1, 1-(tert-butyl)-4-(3-phenylprop-1-yn-1-yl)benzene], in series [2] (2 μM), the “efficacy against EKP-induced epileptiform discharges 2 μM” value was 38%. The “reduction in EKP-induced seizure behaviour (non-significant)” value in series [1] (2 μM) is given as “approximately 23%”; in series [1] (10 μM), around 19%. In addition, the “antiseizure activity at the behavioural level (in words)” value in series [1] is reported as “did not show significant activity”.

For the compound `CC(C)(C)c1ccc(C#CC(=O)c2ccccc2N)cc1` [I.5, 1-(2-aminophenyl)-3-(4-(tert-butyl)phenyl)prop-2-yn-1-one], the “activity … (behavioural)” value in series [1] is “active”.

In the case of `CCCC(CCC)C(=O)[O-].[Na+]` [valproate, sodium valproate, reference compound], the “protection against the electrically induced seizures (in words)” value in series [3] (300 mg/kg i.p., positive control) is “completely protected”.

For the compound `O=c1cc(-c2ccccc2)[nH]c2ccccc12` [III.1, 2-phenylquinolin-4(1H)-one], in series [1], the “reduction in EKP-induced drug-resistant seizures (non-significant)” value is listed as “approximately 20%”.

On to `CC(C)(C)c1ccc(C#CC(=O)c2ccsc2)cc1` [I.8, 3-(4-(tert-butyl)phenyl)-1-(thiophen-3-yl)prop-2-yn-1-one], for which the “activity … (behavioural)” value in series [1] is on record as “active”.

Turning to `CC(C)(C)c1ccc(-c2cc(=O)c3cccnc3[nH]2)cc1` [Compound 8.1, 2-(4-(tert-butyl)phenyl)-1,8-naphthyridin-4(1H)-one], the “efficacy against EKP-induced epileptiform discharges 2 μM” value in series [2] (2 μM) stood at 57%. Also, in series [2] (10 μM), the “efficacy against EKP-induced epileptiform discharges 10 μM” value was −117%. In series [1], the “activity … (behavioural)” value is recorded as “active”. For the same compound, the mean seizure duration in series [3] (30 mg/kg i.p.) is recorded as 12.5 s; in series [3] (100 mg/kg i.p.) it was 9.7 s; in series [3] (300 mg/kg i.p.) it was 2.8 s; in series [3] (600 mg/kg i.p.), 0 s. Also, the “dose-response relationship (in words)” value in series [3] was “displayed a dose-response relationship”.

Consider `O=C(C#Cc1cccc(F)c1)c1ccccc1` [Compound 1.35, 3-(3-fluorophenyl)-1-phenylprop-2-yn-1-one], for which, in series [1], the “active in the behavioural assay” value is “active” and the “tolerated in the behavioural assay” value is reported as “tolerated”.
